In patent US6858591B2, “Antibiotic AA 896 analogs” (Wyeth Holdings Corporation, priority 2001, dated 2005):
Converted amounts (≈) assume the structure as drawn. Read-outs that look alike come from different tables or passages of the source.

Tests used:
Test in all cases: In vitro MIC, broth dilution
Assay type in all cases: cell-based
E. coli GC 4559 = conditions: Escherichia coli, GC4559
C. albicans GC 3066 = conditions: Candida albicans, GC3066
P. aeruginosa GC 2214 = conditions: Pseudomonas aeruginosa, GC2214
E. cloacae GC 3783 = conditions: Enterobacter cloacae, GC3783
P. aeruginosa GC 4532 = conditions: Pseudomonas aeruginosa, GC4532
S. marcescens GC 4077 = conditions: Serratia marcescens, GC4077
CNS GC 4537 = system: CNS GC 4537
Description: (§1) The minimum inhibitory concentration (MIC), the lowest concentration of the antibiotic which inhibits growth of the test organism, is determined by the broth dilution method using Muller-Hinton II […] (Baltimore Biological Laboratories) following the recommendations of National Committee for Clinical Laboratory Standards. [Reference for the Methods for dilution antimicrobial susceptibility tests for bacteria that grow aerobically: National Committee for Clinical Laboratory Standards, 1997. Approved standard M7-A National Committee for Clinical Laboratory Standards, Wayne, Pa.] An inoculum level of 5×10^5 CFU/ml, and a range of antibiotic concentrations (64-0.06 μg/ml) is used. The MIC is determined after the microtiter plates are incubated for 18 hours at 35° C. in an ambient air incubator. The test organisms comprise a spectrum of gram-positive bacteria including Staphylococcus sp., Streptococcus sp. and Enterococcus sp. These organisms include recent clinical isolates that are resistant to methicillin, penicillin and vancomycin.

E. faecalis GC 2242 = conditions: Enterococcus faecalis, GC2242
Description: as §1

S. aureus GC 4536 = conditions: Staphylococcus aureus, GC4536
Description: as §1

CNS GC 4547 = system: CNS GC 4547
Description: as §1

E. faecalis GC 4555 = conditions: Enterococcus faecalis, GC4555
Description: as §1

E. faecalis GC 842 = conditions: Enterococcus faecalis, GC842
Description: as §1

S. aureus GC 2216 = conditions: Staphylococcus aureus, GC2216
Description: as §1

CNS GC 4538 = system: CNS GC 4538
Description: as §1

S. aureus GC 1131 = conditions: Staphylococcus aureus, GC1131
Description: as §1

E. coli GC 3226 = conditions: Escherichia coli, GC3226
K. pneumoniae GC 4534 = conditions: Klebsiella pneumoniae, GC4534
E. coli GC 4560 = conditions: Escherichia coli, GC4560
E. coli GC 2203 = conditions: Escherichia coli, GC2203
M. morganii GC 4531 = conditions: Morganella morganii, GC4531
[1] = C. albicans GC 3066, read-out: MIC
[2] = P. aeruginosa GC 2214, read-out: MIC
[3] = E. cloacae GC 3783, read-out: MIC
[4] = P. aeruginosa GC 4532, read-out: MIC
[5] = S. marcescens GC 4077, read-out: MIC
[6] = E. faecalis GC 2242, read-out: MIC
[7] = S. aureus GC 4536, read-out: MIC
[8] = E. faecalis GC 4555, read-out: MIC
[9] = E. faecalis GC 842, read-out: MIC
[10] = S. aureus GC 2216, read-out: MIC
[11] = S. aureus GC 1131, read-out: MIC
[12] = K. pneumoniae GC 4534, read-out: MIC
[13] = M. morganii GC 4531, read-out: MIC

SMILES | MIC (E. coli GC 4559) [µg/mL] | MIC (C. albicans GC 3066) [µg/mL] | MIC (P. aeruginosa GC 2214) [µg/mL] | MIC (E. cloacae GC 3783) [µg/mL] | MIC (P. aeruginosa GC 4532) [µg/mL] | MIC (S. marcescens GC 4077) [µg/mL] | MIC (CNS GC 4537) [µg/mL] | MIC (E. faecalis GC 2242) [µg/mL] | MIC (S. aureus GC 4536) [µg/mL] | MIC (CNS GC 4547) [µg/mL] | MIC (E. faecalis GC 4555) [µg/mL] | MIC (E. faecalis GC 842) [µg/mL] | MIC (S. aureus GC 2216) [µg/mL] | MIC (CNS GC 4538) [µg/mL] | MIC (S. aureus GC 1131) [µg/mL] | MIC (E. coli GC 3226) [µg/mL] | MIC (K. pneumoniae GC 4534) [µg/mL] | MIC (E. coli GC 4560) [µg/mL] | MIC (E. coli GC 2203) [µg/mL] | MIC (M. morganii GC 4531) [µg/mL] | also measured
COc1ccc(Cn2c(=O)ccn([C@@H]3OC([C@H](O)[C@H](NCCCNC(=O)[C@H](CC(C)C)NC(=O)[C@H](CCCNC(=N)N)NC(=O)N[C@H](C(=O)O)C(C)C)C(=O)O)[C@@H](O)[C@H]3O)c2=O)cc1 (stereo partly drawn) [Example 50, (2S,6S,9S,16S)-6-(3-{[Amino(imino)methyl]amino}propyl)-16-[(R)-[(3S,4R,5R)-3,4-dihydroxy-5-(3-(4-methoxybenzyl)-2,4-dioxo-3,4-dihydro-1(2H)-pyrimidinyl)tetrahydro-2-furanyl](hydroxy)-methyl]-9-isobutyl-2-isopropyl-4,7,10-trioxo-3,5,8,11,15-pentaazaheptadecane-1,17-dioic acid] |  |  |  |  |  |  |  |  |  |  |  |  |  |  |  |  |  |  |  |  | MIC (E. coli GC 4559; E. coli GC 4559, read-out: MIC): > 128 µg/mL; MIC (C. albicans GC 3066; [1]): 128 µg/mL (≈ 141 µM); MIC (P. aeruginosa GC 2214; [2]): 128 µg/mL (≈ 141 µM); MIC (E. cloacae GC 3783; [3]): > 128 µg/mL; MIC (P. aeruginosa GC 4532; [4]): 128 µg/mL (≈ 141 µM); MIC (S. marcescens GC 4077; [5]): > 128 µg/mL; MIC (CNS GC 4537; CNS GC 4537, read-out: MIC): > 128 µg/mL; MIC (E. faecalis GC 2242; [6]): 128 µg/mL (≈ 141 µM); MIC (S. aureus GC 4536; [7]): > 128 µg/mL; MIC (CNS GC 4547; CNS GC 4547, read-out: MIC): > 128 µg/mL; MIC (E. faecalis GC 4555; [8]): > 128 µg/mL; MIC (E. faecalis GC 842; [9]): > 128 µg/mL; MIC (S. aureus GC 2216; [10]): > 128 µg/mL; MIC (CNS GC 4538; CNS GC 4538, read-out: MIC): > 128 µg/mL; MIC (S. aureus GC 1131; [11]): > 128 µg/mL; MIC (E. coli GC 3226; E. coli GC 3226, read-out: MIC): > 128 µg/mL; MIC (K. pneumoniae GC 4534; [12]): > 128 µg/mL; MIC (E. coli GC 4560; E. coli GC 4560, read-out: MIC): > 128 µg/mL; MIC (E. coli GC 2203; E. coli GC 2203, read-out: MIC): > 128 µg/mL; MIC (M. morganii GC 4531; [13]): 128 µg/mL (≈ 141 µM)
COc1ccc(Cn2c(=O)ccn([C@@H]3OC([C@H](O)[C@H](NCCCNC(=O)[C@@H](N)CC(C)C)C(=O)OC(C)(C)C)[C@@H](O)[C@H]3O)c2=O)cc1 (stereo partly drawn) [Example 54, tert-Butyl (2S,3R)-2-[(3-{[(2S)-2-amino-4-methylpentanoyl]amino}propyl)amino]-3-[(3S,4R,5R)-3,4-dihydroxy-5-(3-(4-methoxybenzyl)-2,4-dioxo-3,4-dihydro-1(2H)-pyrimidinyl)tetrahydro-2-furanyl]-3-hydroxypropanoate] |  |  |  |  |  |  |  |  |  |  |  |  |  |  |  |  |  |  |  |  | MIC (E. coli GC 4559; E. coli GC 4559, read-out: MIC): > 128 µg/mL; MIC (C. albicans GC 3066; [1]): > 128 µg/mL; MIC (P. aeruginosa GC 2214; [2]): 128 µg/mL (≈ 193 µM); MIC (E. cloacae GC 3783; [3]): > 128 µg/mL; MIC (P. aeruginosa GC 4532; [4]): > 128 µg/mL; MIC (S. marcescens GC 4077; [5]): > 128 µg/mL; MIC (CNS GC 4537; CNS GC 4537, read-out: MIC): > 128 µg/mL; MIC (E. faecalis GC 2242; [6]): 128 µg/mL (≈ 193 µM); MIC (S. aureus GC 4536; [7]): > 128 µg/mL; MIC (CNS GC 4547; CNS GC 4547, read-out: MIC): > 128 µg/mL; MIC (E. faecalis GC 4555; [8]): > 128 µg/mL; MIC (E. faecalis GC 842; [9]): 128 µg/mL (≈ 193 µM); MIC (S. aureus GC 2216; [10]): > 128 µg/mL; MIC (CNS GC 4538; CNS GC 4538, read-out: MIC): > 128 µg/mL; MIC (S. aureus GC 1131; [11]): > 128 µg/mL; MIC (E. coli GC 3226; E. coli GC 3226, read-out: MIC): > 128 µg/mL; MIC (K. pneumoniae GC 4534; [12]): > 128 µg/mL; MIC (E. coli GC 4560; E. coli GC 4560, read-out: MIC): 128 µg/mL (≈ 193 µM); MIC (E. coli GC 2203; E. coli GC 2203, read-out: MIC): > 128 µg/mL; MIC (M. morganii GC 4531; [13]): 128 µg/mL (≈ 193 µM)
COc1ccc(Cn2c(=O)ccn([C@@H]3OC([C@H](O)[C@H](NCCCNC(=O)[C@H](CCCCNC(=O)OCc4ccccc4)NC(=O)OCc4ccccc4)C(=O)OC(C)(C)C)[C@@H](O[Si](C)(C)C(C)(C)C)[C@H]3O[Si](C)(C)C(C)(C)C)c2=O)cc1 (stereo partly drawn) [Example 18, tert-Butyl (9S,16S)-9-{[(benzyloxy)carbonyl]amino}-16-[(R)-[(3R,4R,5R)-3,4-bis{[tert-butyl(dimethyl)silyl]oxy}-5-(3-(4-methoxybenzyl)-2,4-dioxo-3,4-dihydro-1(2H)-pyrimidinyl)tetrahydro-2-furanyl](hydroxy)methyl]-3,10-dioxo-1-phenyl-2-oxa-4,11,15-triazaheptadecan-17-oate] | > 128 | > 128 | > 128 | > 128 | > 128 | > 128 | > 128 | 128 (≈ 109 µM) | > 128 | > 128 | > 128 | > 128 | > 128 | > 128 | > 128 | > 128 | > 128 | > 128 | > 128 | > 128 | 
COc1ccc(Cn2c(=O)ccn([C@@H]3OC([C@H](O)[C@H](NCCCNC(=O)CCCCCCCCCCNC(=O)OCC4c5ccccc5-c5ccccc54)C(=O)OC(C)(C)C)[C@@H](O[Si](C)(C)C(C)(C)C)[C@H]3O[Si](C)(C)C(C)(C)C)c2=O)cc1 (stereo partly drawn) [Example 24, tert-Butyl (21S)-21-[(R)-[(3R,4R,5R)-3,4-bis{[tert-butyl(dimethyl)silyl]oxy}-5-(3-(4-methoxybenzyl)-2,4-dioxo-3,4-dihydro-1(2H)-pyrimidinyl)tetrahydro-2-furanyl](hydroxy)methyl]-1-(9H-fluoren-9-yl)-3,15-dioxo-2-oxa-4,16,20-triazadocosan-22-oate] | > 128 | 128 (≈ 108 µM) | 128 (≈ 108 µM) | > 128 | 128 (≈ 108 µM) | 128 (≈ 108 µM) | > 128 | 128 (≈ 108 µM) | > 128 | > 128 | > 128 | > 128 | > 128 | > 128 | > 128 | > 128 | > 128 | 128 (≈ 108 µM) | > 128 | 128 (≈ 108 µM) | 
COc1ccc(Cn2c(=O)ccn([C@@H]3OC([C@@H](O)[C@H](NCCCNC(=O)C(NC(=O)OCc4ccccc4)[C@@H](O)C(C)C)C(=O)OC(C)(C)C)[C@@H](O[Si](C)(C)C(C)(C)C)[C@H]3O[Si](C)(C)C(C)(C)C)c2=O)cc1 (stereo in doubt) [Example 3, tert-Butyl (5R,12S)-12-[(S)-[(3R,4R,5R)-3,4-bis{[tert-butyl(dimethyl)silyl]oxy}-5-(3-(4-methoxybenzyl)-2,4-dioxo-3,4-dihydro-1(2H)-pyrimidinyl)tetrahydro-2-furanyl](hydroxy)methyl]-5-[(1S)-1-hydroxy-2-methylpropyl]-3,6-dioxo-1-phenyl-2-oxa-4,7,11-triazatridecan-13-oate] | > 128 | 128 (≈ 123 µM) | 128 (≈ 123 µM) | > 128 | 128 (≈ 123 µM) | > 128 | > 128 | 128 (≈ 123 µM) | > 128 | 128 (≈ 123 µM) | 128 (≈ 123 µM) | > 128 | > 128 | > 128 | > 128 | > 128 | > 128 | 128 (≈ 123 µM) | > 128 | 128 (≈ 123 µM) | 
COc1ccc(Cn2c(=O)ccn([C@@H]3OC([C@H](O)[C@H](NCCCNC(=O)[C@H](Cc4ccccc4)NC(=O)OCc4ccccc4)C(=O)OC(C)(C)C)[C@@H](O[Si](C)(C)C(C)(C)C)[C@H]3O[Si](C)(C)C(C)(C)C)c2=O)cc1 (stereo partly drawn) [Example 12, tert-Butyl (5S,12S)-5-benzyl-12-[(R)-[(3R,4R,5R)-3,4-bis{[tertbutyl(dimethyl)silyl]oxy}-5-(3-(4-methoxybenzyl)-2,4-dioxo-3,4-dihydro-1(2H)-pyrimidinyl)tetrahydro-2-furanyl](hydroxy)methyl]-3,6-dioxo-1-phenyl-2-oxa-4,7,11-triazatridecan-13-oate] | > 128 | 128 (≈ 121 µM) | 128 (≈ 121 µM) | 128 (≈ 121 µM) | 128 (≈ 121 µM) | 128 (≈ 121 µM) | > 128 | 128 (≈ 121 µM) | > 128 | 128 (≈ 121 µM) | 128 (≈ 121 µM) | 128 (≈ 121 µM) | > 128 | > 128 | > 128 | > 128 | > 128 | 128 (≈ 121 µM) | > 128 | 128 (≈ 121 µM) | 
